Data reported in ChEMBL document CHEMBL3301361, “Experimental in vitro DMPK and physicochemical data on a set of publicly disclosed compounds”.
In brackets after ≈: the same amount, converted by molar mass.

Key:
physchem [1] = conditions: pH 7.4 buffer
physchem [2] = conditions: octan-1-ol/water, pH 7.4, LogD7.4

| Compound | solubility thermodynamic (physchem [1]) [µM] | logD (physchem [2]) |
| --- | --- | --- |
| CCCc1c(O)c(O)c(C(=O)O)c2cc(Cc3ccccc3)c(C)cc12 | 204 (≈ 71.6 µg/mL) | 2.6 |
| COc1cc(C(=O)NS(=O)(=O)c2ccccc2C)ccc1Cc1cn(C)c2ccc(C(=O)NCCc3ccccc3)cc12 | 144 (≈ 86.1 µg/mL) | 2.51 |
| N#Cc1cnn(-c2ccccc2)c1NC(=O)CN1CCN(c2ccccc2)CC1 | 25.1 (≈ 9.7 µg/mL) | 2.3 |
| COc1ccc(S(=O)(=O)Nc2ccc(/C=C/C(=O)Nc3ccccc3N)cc2)cc1OC | 7.8 (≈ 3.54 µg/mL) | 2.56 |
| COc1ccc(C(=O)C2CCN(C(=O)c3ccco3)CC2)cc1 | 380 (≈ 119 µg/mL) | 2.42 |
| FC(F)(F)c1nnc2ccc(NCn3nnc4ccccc43)nn12 | 18.2 (≈ 6.08 µg/mL) | 2.34 |
| CN1CCN(CC(=O)Nc2ccc(-c3cccn4c(=O)cc(N5CCOCC5)nc34)c3sc4ccccc4c23)CC1 | 5.4 (≈ 3.07 µg/mL) | 2.6 |
| CC1(COc2cc(-c3cccc4c(=O)cc(N5CCOCC5)oc34)ccc2NC(=O)CN2CCOCC2)COC1 | 36.3 (≈ 20 µg/mL) | 2.2 |
| COc1cc(-c2cccc3c(=O)cc(N4CCOCC4)oc23)ccc1NC(=O)CN1CCOCC1 | 13.2 (≈ 6.33 µg/mL) | 2.3 |
| O=C(Nc1ccccc1-c1ccccc1)OC1CCN(CCCCCCCCCNC[C@H](O)c2ccc(O)c3[nH]c(=O)ccc23)CC1 | 525 (≈ 336 µg/mL) | 2.16 |
| COc1ccnc(N(C)c2ccnc(Nc3cc(N4CCOCC4)cc(N4CCOCC4)c3)n2)c1 | 51.3 (≈ 24.5 µg/mL) | 2.23 |
| FC(F)(F)c1nnc2ccc(N3CCCC3)nn12 | 417 (≈ 107 µg/mL) | 2.41 |
| CC1C(=O)Nc2ccccc2N1C(=O)c1ccccc1 (configuration not stated) | 40.7 (≈ 10.8 µg/mL) | 2.11 |
| Cc1ccc(NC(=O)c2ccoc2)cc1-n1cnc2ccc(N3CCN(C)CC3)cc2c1=O | 1290 (≈ 571 µg/mL) | 2.43 |
| CC(=O)N1CCN(c2ccc(NC(=O)c3nnc(Nc4ccccc4F)o3)cc2)CC1 | 6.2 (≈ 2.63 µg/mL) | 2.51 |
| CCCN(CCO)CCCOc1ccc2c(Nc3cc(CC(=O)Nc4cccc(F)c4F)[nH]n3)ncnc2c1 | 5.8 (≈ 3.13 µg/mL) | 2.19 |
| CCCSc1nc(N2CCC[C@H](CC(=O)O)C2)ccc1C(=O)NC1CCCCC1 | 174 (≈ 72.9 µg/mL) | 2.18 |

| Compound | solubility thermodynamic (physchem [1]) [µM] | logD (physchem [2]) |
| --- | --- | --- |
| CN1CCC(COc2cc(OC3CCOCC3)c3c(Nc4c(Cl)ccc5c4OCO5)ncnc3c2)CC1 | 1380 (≈ 727 µg/mL) | 2.59 |
| CS(=O)(=O)C1(c2cc(N3CCOCC3)nc(-c3ccccc3)n2)CC1 | 8.9 (≈ 3.2 µg/mL) | 2.6 |
| O=C(c1ccc(F)cc1)C(O)c1ccc(F)cc1 (configuration not stated) | 933 (≈ 232 µg/mL) | 2.49 |
| O=C(O)c1ccccc1Cn1nnc(-c2cccc(OCc3ccc4ccccc4n3)c2)n1 | 7.8 (≈ 3.41 µg/mL) | 2.1 |
| COc1cc(C(=O)O)ccc1Cn1ccc2ccc(NC(=O)OC3CCCC3)cc21 | 186 (≈ 76.1 µg/mL) | 2.1 |
| Cc1sc(N2CCN(C)CC2)nc1CCOc1ccc(C[C@H](Nc2ccccc2C(=O)c2ccccc2)C(=O)O)cc1 | 97.7 (≈ 57.1 µg/mL) | 2.58 |
| Cc1ccc(NC(=O)c2ccnc(N3CCOCC3)c2)cc1Nc1ccnc(OCC(C)(C)CN(C)C)n1 | 490 (≈ 255 µg/mL) | 2.2 |
| CN(C)CC(O)COc1ccc(Nc2nccc(N(CC#N)c3cc(Cl)ccc3Cl)n2)cc1 (configuration not stated) | 575 (≈ 280 µg/mL) | 2.4 |
| CN(CCOc1ccc(C[C@H](Nc2ccccc2C(=O)c2ccccc2)C(=O)O)cc1)c1ccccn1 | 219 (≈ 108 µg/mL) | 2.15 |
| Cc1ncc(-c2ccnc(Nc3ccc(S(=O)(=O)CCCN4CCOCC4)cc3)n2)n1C(C)C | 851 (≈ 412 µg/mL) | 2.43 |
| Cn1c(=O)n(Cc2ccc(C(=O)O)cc2)c(=O)c2cc(C#CCc3ccccc3)ccc21 | 3 (≈ 1.27 µg/mL) | 2.5 |
| COc1ccc(CNCc2ccc(-c3cc(C(N)=O)c(NC(N)=O)s3)cc2)cc1 | 11.5 (≈ 4.72 µg/mL) | 2.55 |
| Cc1cccc(NS(=O)(=O)c2ccc(-c3ccc(C#N)cc3)cc2)n1 | 17.4 (≈ 6.08 µg/mL) | 2.42 |
| Cc1cc(Oc2ccnc(Nc3ccc(S(N)(=O)=O)cc3)c2)c(-c2ccccn2)nc1C | 2.5 (≈ 1.12 µg/mL) | 2.34 |
| Cc1ccc(Oc2ccnc(Nc3ccc(S(N)(=O)=O)cc3)c2)c(C)n1 | 4.2 (≈ 1.56 µg/mL) | 2.47 |
| COc1cc(C(=O)NS(=O)(=O)c2ccccc2)ccc1Cn1ccc2ccc(NC(=O)OC3CCCC3)cc21 | 5.1 (≈ 2.79 µg/mL) | 2.2 |

The remaining lines, values ahead:

| solubility thermodynamic (physchem [1]) [µM] | logD (physchem [2]) | Compound |
| --- | --- | --- |
| 1510 (≈ 620 µg/mL) | 2.53 | O=C(O)C[C@@H]1c2ccccc2C[C@H]1NC(=O)c1cc2sc(Cl)c(Cl)c2[nH]1 |
| 85.1 (≈ 31.6 µg/mL) | 2.39 | CCCCn1c(Cc2cc(OC)c(OC)c(OC)c2)nc2c(N)ncnc21 |
| 5.6 (≈ 2.14 µg/mL) | 2.5 | CS(=O)(=O)c1cccc(Nc2nccc(Nc3cccc4ncoc34)n2)c1 |
| 1.4 (≈ 0.592 µg/mL) | 2.43 | CCOC(=O)c1ccccc1-c1csc(NS(=O)(=O)c2ccc(Cl)cc2)n1 |
| 724 (≈ 158 µg/mL) | 2.36 | CNc1ncc(C(=O)c2ccccc2)s1 |
| 178 (≈ 41.7 µg/mL) | 2.25 | Oc1ncnc2scc(-c3ccsc3)c12 |
| 4.8 (≈ 2.08 µg/mL) | 2.39 | NC(=O)c1sc(-c2ccsc2)cc1NS(=O)(=O)c1ccc(C(F)(F)F)cc1 |
| 224 (≈ 56.3 µg/mL) | 2.3 | COc1cccc2c(O)cc(-c3ccccc3)nc12 |
| 170 (≈ 50.1 µg/mL) | 2.12 | Nc1nc(-c2ccccn2)nc(N)c1Cc1ccccc1F |
| 151 (≈ 64.5 µg/mL) | 2.11 | O=S(=O)(Nc1nc(-c2sccc2Cl)cs1)c1cc(Cl)ccc1Cl |
| 14.1 (≈ 6.14 µg/mL) | 2.1 | CCn1c(SCC(=O)Nc2c(C#N)cnn2-c2ccccc2)nnc1-c1cccs1 |
| 832 (≈ 147 µg/mL) | 2.43 | Nc1nc(-c2ccccc2)cs1 |
| 6.6 (≈ 2.97 µg/mL) | 2.36 | COc1cc2ncnc(Oc3cnn(CC(=O)Nc4ccc(N(C)C)cn4)c3)c2cc1OC |
| 4.7 (≈ 1.12 µg/mL) | 2.34 | O=c1cc(-c2ccc(O)cc2)[nH]c2ccccc12 |
| 1510 (≈ 632 µg/mL) | 2.17 | Cc1ccc(NC(=O)C2CC2)cc1-n1cnc2ccc(N3CCN(C)CC3)cc2c1=O |
| 91.2 (≈ 36.2 µg/mL) | 2.36 | CN1CCN(c2ccc(NC(=O)c3nnc(Nc4ccccc4F)o3)cn2)CC1 |
| 38.9 (≈ 8.49 µg/mL) | 2.33 | NC(=O)c1sc(-c2ccccc2)cc1N |

| solubility thermodynamic (physchem [1]) [µM] | logD (physchem [2]) | Compound |
| --- | --- | --- |
| 282 (≈ 137 µg/mL) | 2.16 | COc1cc2ncnc(Nc3cccc(Cl)c3F)c2cc1CN(C)C1(C(N)=O)CCN(C)CC1 |
| 63.1 (≈ 19.6 µg/mL) | 2.5 | Cc1cc(Nc2ccnc(NCc3cc(C4CC4)no3)n2)n[nH]1 |
| 2 (≈ 0.758 µg/mL) | 2.37 | Nc1ncnc2c1nc(Sc1nc3cccc(Cl)c3s1)n2CCO |
| 53.7 (≈ 15.7 µg/mL) | 2.49 | O=C(Nc1ccccc1O)c1cc([N+](=O)[O-])ccc1Cl |
| 759 (≈ 197 µg/mL) | 2.49 | Cc1nc2ccc(Cl)cn2c1-c1ccnc(N)n1 |
| 468 (≈ 219 µg/mL) | 2.58 | CS(=O)(=O)c1ccc([C@@H](CC2CCCC2)C(=O)Nc2cnc([C@H](O)CO)cn2)cc1Cl |
| 15.8 (≈ 4.54 µg/mL) | 2.6 | Nc1n[nH]c2nnc(-c3ccccc3)c(-c3ccccc3)c12 |
| 26.3 (≈ 7.16 µg/mL) | 2.57 | c1ccc(-c2n[nH]cc2-c2ccnc3ccccc23)nc1 |
| 120 (≈ 49.8 µg/mL) | 2.5 | CN(C)CC(O)COc1ccc(Nc2nccc(Nc3cccc(Cl)c3)n2)cc1 (configuration not stated) |
| 55 (≈ 16.7 µg/mL) | 2.43 | COC(=O)COc1ccc(C(=O)Nc2ccc(F)cc2)cn1 |
| 51.3 (≈ 19.6 µg/mL) | 2.6 | NS(=O)(=O)c1cccc(Nc2nccc(Nc3cccc4[nH]ncc34)n2)c1 |
| 57.5 (≈ 25.2 µg/mL) | 2.49 | Cc1ncc(-c2nc(Nc3ccc(C(=O)N4CCN(C)CC4)cc3)ncc2F)n1C(C)C |
| 20.9 (≈ 7.93 µg/mL) | 2.21 | COCCOCCOc1ccc(-c2cc(C(N)=O)c(NC(N)=O)s2)cc1 |
| 148 (≈ 62 µg/mL) | 2.39 | CC(=O)N1CCN(c2ccc(Nc3nccc(-c4cnc(C)n4C(C)C)n3)cc2)CC1 |
| 275 (≈ 129 µg/mL) | 2.41 | Cc1ncc(-c2nc(Nc3ccc(C(=O)NC4CCN(C)CC4)c(F)c3)ncc2F)n1C(C)C |
| 851 (≈ 165 µg/mL) | 2.4 | CCOc1ccc2nc(N)sc2c1 |
